Data: US20080312287A1, “Compound and Methods For the Treatment of Cancer and Malaria” (University of Washington, priority 2005, published 2008)
Read-outs that look alike come from different tables or passages of the source. Marks after values point to notes of the source that are not given here.

Key:
P. falciparum 3D7 = assay: P. falciparum ED50 determination, [3H]-hypoxanthine incorporation, strain 3D7; format: cell-based, Plasmodium falciparum; details: concentration decreasing hypoxanthine incorporation into parasites twofold, read-out: ED50 3D7
From the text: (§1) Plasmodium strains. The P. falciparum strains used in this study were 3D7 (Netherlands, sensitive) provided by Dr. Pradipsinh Rathod from the University of Washington and K1 (Thailand, ChQ-R, Pyr-R) obtained from the MR4Unit of the American Type Culture Collection (ATCC, Manassas, Va.).
(§2) P. falciparum culture. Strains of P. falciparum were sustained in vitro based on experimental techniques as described by Trager and Jensen.^26 Cultures were maintained in RPMI-1640 (Sigma, St. Louis, […].) with 2 mM L-glutamine, 25 mM HEPES, 33 mM NaHCO3, 20 μg/ml gentamicin sulfate and 20% (v/v) heat-inactivated human plasma type A+ (R^P-20P). Type A+ erythrocytes were obtained from lab donors, washed three times with RPMI, re-suspended in 50% RPMI, and stored at 4° C. Parasites were grown in 10 mL of a 2% hematocrit/RP-20P (v/v) in 50-mL flasks under a 5% CO2, 5% O2, and 90% N2 atmosphere.
(§3) P. falciparum ED50 determination. One […]L of PFTI dissolved in DMSO was added to each well of a 96-well plate followed by the addition of 200 μL of P. falciparum culture at parasitemia and hematocrit of 0.5%. Plates were flushed with 5% CO2, 5% O2, and 90% N2 then incubated at 37° C. for 48 hr. [8-^3H]-hypoxanthine (0.3 μCi, 20 Ci/mmol, American Radiolabeled Chemicals) in 30 μL RP-20P was added to cultures and incubated for an additional 24 hours. Cells were harvested onto filter mats by a Multiharvester (Skatron, Sunnyvale, Calif.) and the radioactivity incorporated into the parasites was counted on a β-scintillation counter. The background level detected with uninfected erythrocytes was subtracted from the data. The ^3H-incorporation into infected RBCs with 1 μL DMSO vehicle alone represents 100% malaria growth. ED50 values were determined by linear regression analysis of the plots of ^3H-hypoxanthine incorporation versus concentration of compound.

PfPFT = target: T1, PfPFT (Plasmodium falciparum, UniProt Q8I503+Q8IHP6); assay: PfPFT inhibition, scintillation proximity assay with partially purified PfPFT; format: biochemical; details: for IC50: concentration decreasing transferase activity twofold; for inhibition at 0.005 µM: read-out: % Inhibition of PfPFT at 5 nM, inhibitor at 5 nM; for inhibition at 0.05 µM: read-out: % Inhibition of PfPFT at 50 nM, inhibitor at 50 nM; for Selectivity: ratio of rat to Plasmodium PFT activity
T1 sequence (Q8I503 1-521): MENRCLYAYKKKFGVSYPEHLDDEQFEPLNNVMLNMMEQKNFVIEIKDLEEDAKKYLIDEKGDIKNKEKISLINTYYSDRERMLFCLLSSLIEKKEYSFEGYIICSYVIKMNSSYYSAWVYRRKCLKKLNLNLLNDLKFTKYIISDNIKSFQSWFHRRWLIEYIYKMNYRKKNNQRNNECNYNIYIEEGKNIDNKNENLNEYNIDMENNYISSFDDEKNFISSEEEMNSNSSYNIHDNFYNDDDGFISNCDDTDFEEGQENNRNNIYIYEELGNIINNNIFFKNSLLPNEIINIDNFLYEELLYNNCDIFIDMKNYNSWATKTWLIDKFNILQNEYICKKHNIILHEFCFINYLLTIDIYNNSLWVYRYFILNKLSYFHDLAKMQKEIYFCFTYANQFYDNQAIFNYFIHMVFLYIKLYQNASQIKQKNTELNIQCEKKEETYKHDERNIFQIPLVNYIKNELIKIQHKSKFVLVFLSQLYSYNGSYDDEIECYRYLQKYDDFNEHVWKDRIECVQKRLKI
T1 sequence (Q8IHP6 1-923): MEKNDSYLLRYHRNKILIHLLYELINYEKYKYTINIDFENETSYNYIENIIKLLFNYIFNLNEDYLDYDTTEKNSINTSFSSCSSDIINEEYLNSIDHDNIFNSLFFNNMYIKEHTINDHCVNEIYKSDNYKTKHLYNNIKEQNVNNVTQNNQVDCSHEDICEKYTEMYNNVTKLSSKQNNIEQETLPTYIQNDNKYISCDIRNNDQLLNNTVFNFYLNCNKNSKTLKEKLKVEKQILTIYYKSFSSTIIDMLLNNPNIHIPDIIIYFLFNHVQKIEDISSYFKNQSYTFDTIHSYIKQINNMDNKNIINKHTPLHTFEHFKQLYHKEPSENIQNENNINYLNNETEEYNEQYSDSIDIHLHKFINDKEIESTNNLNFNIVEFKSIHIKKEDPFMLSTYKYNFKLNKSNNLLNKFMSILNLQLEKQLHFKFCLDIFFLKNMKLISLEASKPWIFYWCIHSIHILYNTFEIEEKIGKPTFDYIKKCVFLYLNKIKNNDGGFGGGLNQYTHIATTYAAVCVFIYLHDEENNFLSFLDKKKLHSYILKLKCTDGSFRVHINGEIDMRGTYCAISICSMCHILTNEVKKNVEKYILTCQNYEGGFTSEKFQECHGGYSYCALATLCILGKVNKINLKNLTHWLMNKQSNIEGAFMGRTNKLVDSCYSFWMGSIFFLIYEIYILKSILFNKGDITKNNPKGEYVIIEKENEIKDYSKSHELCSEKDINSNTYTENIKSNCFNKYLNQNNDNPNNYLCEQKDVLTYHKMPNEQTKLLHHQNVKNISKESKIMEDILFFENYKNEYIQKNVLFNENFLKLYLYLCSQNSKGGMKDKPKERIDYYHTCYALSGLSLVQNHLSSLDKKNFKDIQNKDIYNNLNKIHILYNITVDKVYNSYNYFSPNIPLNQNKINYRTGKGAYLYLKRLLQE

P. falciparum K1 = assay: P. falciparum ED50 determination, [3H]-hypoxanthine incorporation, strain K1; format: cell-based, Plasmodium falciparum; details: concentration decreasing hypoxanthine incorporation into parasites twofold, read-out: ED50 K1
From the text: as §1, §2, §3

[1] = Oral availability in mice, inhibitor concentration in plasma; format: in vivo
[2] = Oral availability in rats, inhibitor concentration in plasma; format: in vivo; details: rat
Rat FTase = Rat FTase (Rattus norvegicus, UniProt Q02293+Q04631); assay: Rat farnesyltransferase IC50 determination; format: biochemical; details: concentration decreasing transferase activity twofold
[3] = Liver microsome metabolism (mouse); details: female
Experimental: (§4) Microsome metabolism. Liver microsome metabolism assays were performed with female pooled microsomes from BD Biosciences (20 mg/mL). Reaction wells containing: phosphate buffer (232 μL, 0.6 M), MgCl2 (12.0 μL, 0.1 M), EDTA (0.8 μL, 0.5 M), 10x NADPH regenerating system (40.0 μL), Glucoide-6-phosphate deghydrogenase (0.8 μL, 500 U/mL), milliq water (267.8 μL), and liver microsomes (10.0 μL, 20 mg/mL) were heated at 37° C. for 10 mins. To each reaction well was added inhibitor (200 μM, 2.0 μL) in DMSO. Reaction vessels were quenched with acetonitrile (75 μL) and internal standard at designated time points, and the sample immediately frozen (−20° C.). Metabolites and unreacted inhibitor were quantified by mass spectral analysis.

[4] = Liver microsome metabolism (rat); details: female, microsomes
Experimental: as §4

Caco-2 cells = assay: Caco-2 apparent permeability; details: apparent permeability coefficient
From the text: Absorption. Caco-2 cells cultured on a semi-permeable membrane form a highly functionalized epithelial barrier, with remarkable similarity to small intestinal epithelial cells, including high levels of brush border hydrolases and well developed junctional complexes.

[5] = Plasmodium falciparum, 3D7, strain 3D7
[6] = Plasmodium falciparum, K1, strain K1

SMILES | EC50 (P. falciparum 3D7; [5]) [nM] | IC50 (PfPFT) [nM] | inhibition at 0.005 µM (PfPFT) [%] | inhibition at 0.05 µM (PfPFT) [%] | EC50 (P. falciparum K1; [6]) [nM] | Tmax ([1]; mouse, in vivo, po) [min] | IC50 (Rat FTase) [nM] | Selectivity (PfPFT) | also measured
Cn1cnc(S(=O)(=O)N(CCN(Cc2cncn2C)c2ccc(C#N)cc2)CC2CCN(C(=O)OC(C)(C)C)CC2)c1 [Compound 8v, 4-{[{2-[(4-Cyano-phenyl)-(3-methyl-3H-imidazol-4-ylmethyl)-amino]-ethyl}-(1-methyl-1H-imidazole-4-sulfonyl)-amino]-methyl}-piperidine-1-carboxylic acid tert-butyl ester] | 88 | 1.2 | 81 | 96 | 54 | ≤ 40 | – | – | –
Cc1ccccc1CN(CCN(Cc1cncn1C)c1ccc(C#N)cc1)S(=O)(=O)c1cn(C)cn1 [Compound 8x, 1-Methyl-1H-imidazole-4-sulfonic acid {2-[(4-cyano-phenyl)-(3-methyl-3H-imidazol-4-ylmethyl)-amino]-ethyl}-(2-methyl-benzyl)-amide] | 93 | – | 95 | 99 | 150 | 40 | 15.5 | – | Cmax ([1]; mouse, in vivo, po, 1 mg): 1050 nM; Oral Availability AUC (^d, rats) ([2]; in vivo, po): 103^d μM · min
Cn1cnc(S(=O)(=O)N(CCN(Cc2cncn2C)c2ccc(C#N)cc2)Cc2ccc(-c3ccccc3)cc2)c1 [Compound 8ag, 1-Methyl-1H-imidazole-4-sulfonic acid biphenyl-4-ylmethyl-{2-[(4-cyano-phenyl)-(3-methyl-3H-imidazol-4-ylmethyl)-amino]-ethyl}-amide] | 700 | – | 10 | 19 | 2500 | – | 880 | 3.7 | half-life at 0.71 µM ([3]; liver microsomes, Microsome t1/2, Mouse, mouse liver microsomes): < 4 min
Cn1cnc(S(=O)(=O)N(CCN(Cc2cncn2C)c2ccc(C#N)cc2)Cc2ccc(C#N)cc2)c1 [Compound 8ae, 1-Methyl-1H-imidazole-4-sulfonic acid (4-cyano-benzyl)-{2-[(4-cyano-phenyl)-(3-methyl-3H-imidazol-4-ylmethyl)-amino]-ethyl}-amide] | 1600 | – | 24 | 48 | 4100 | – | 350 | 3.7 | –
Cn1cnc(S(=O)(=O)N(CCN(Cc2cncn2C)c2ccc(C#N)cc2)Cc2ccccc2)c1 [Compound 8d, 1-Methyl-1H-imidazole-4-sulfonic acid benzyl-{2-[(4-cyano-phenyl)-(3-methyl-3H-imidazol-4-ylmethyl)-amino]-ethyl}-amide] | 349 | – | 86 | 98 | 375 | – | 25 | – | half-life at 0.71 µM [4]: 18 min; EC50 (P. falciparum K1; strain K1): 367 nM; Oral Availability in Mice AUC ([1]; mouse, in vivo, po, 1 mg): 112.0 µM·min; Oral Availability in Mice t1/2 ([1]; oral gavage, mice 1 mg, elimination half life): 95.9 min; half-life ([2]; plasma, 12.5 mg, oral gavage, rats, elimination half life, read-out: Oral Availability t1/2 (rats)): 96 min; Tmax ([2]; plasma, oral administration to rats 12.5 mg): 30 min; Cmax ([2]; plasma, oral gavage, rats 12.5 mg in 90% saline, 3% ethanol, 7% tween): 740 nM; half-life at 0.71 µM ([3]; microsomes): 9 min
Cc1ccccc1CN(CCN(Cc1cncn1C)c1ccc(-c2ccccc2)cc1)S(=O)(=O)c1cn(C)cn1 [Compound 8c, 1-Methyl-1H-imidazole-4-sulfonic acid {2-[biphenyl-4-yl-(3-methyl-3H-imidazol-4-ylmethyl)-amino]-ethyl}-(2-methyl-benzyl)-amide] | 2500 | 8 | 49 | 85 | 2600 | – | > 1000 | – | EC50 (P. falciparum 3D7; strain 3D7): 2600 nM; EC50 (P. falciparum K1; strain K1): 2500 nM
Cn1cnc(S(=O)(=O)N(CCN(Cc2cncn2C)c2ccc(C#N)cc2)CC2CCCCC2)c1 [Compound 8q, 1-Methyl-1H-imidazole-4-sulfonic acid {2-[(4-cyano-phenyl)-(3-methyl-3H-imidazol-4-ylmethyl)-amino]-ethyl}-cyclohexylmethyl-amide] | 220 | – | 63 | 93 | 850 | – | 7.5 | 1.7 | half-life at 0.71 µM [4]: 4 min; CaCo (Caco-2 cells): 1.5 cm · s^−1 × 10^−6; half-life at 0.71 µM ([3]; microsomes): < 5 min
Cn1cncc1CN(CCN(Cc1ccccc1)S(=O)(=O)c1ccccn1)c1ccc(C#N)cc1 [Compound 8g, Pyridine-2-sulfonic acid benzyl-{2-[(4-cyano-phenyl)-(3-methyl-3H-imidazol-4-ylmethyl)-amino]-ethyl}-amide] | 570 | 2.8 | 64 | 95 | 2300 | 30 | – | – | –
Cn1cncc1CN(CCN(Cc1ccccc1)S(=O)(=O)c1ccccc1)c1ccc(C#N)cc1 [Compound 8e, N-Benzyl-N-{2-[(4-cyano-phenyl)-(3-methyl-3H-imidazol-4-ylmethyl)-amino]-ethyl}-benzenesulfonamide] | 2500 | – | 18 | 69 | 2250 | – | 13 | 1.5 | –
Cn1cnc(S(=O)(=O)N(CCN(Cc2cncn2C)c2ccc(C#N)cc2)CC(=O)NC(C)(C)C)c1 [Compound 8o, N-tert-Butyl-2-[{2-[(4-cyano-phenyl)-(3-methyl-3H-imidazol-4-ylmethyl)-amino]-ethyl}-(1-methyl-1H-imidazole-4-sulfonyl)-amino]-acetamide] | 2800 | > 1000 | 4 | 6 | > 5000 | – | > 1000 | – | –
